How the values were obtained:
[1] = tested on: U266 cells; assay: Cell death by DAPI staining with doxorubicin at 11 mM or 0.5 mM glucose (FIG. 1C); type: cell-based; conditions: resistant U266 cells; glucose-free culture (0.5 mM vs 11 mM glucose); 48 hours
Protocol: (§1) FIG. 1. Glucose metabolism sustains myeloma cell proliferation, viability and promotes chemoresistance: (A) Primary myeloma cells, normal B lymphocytes (NBL) and four MM cell lines were cultured in medium containing 0 or 5 mM glucose for 48 (NBL, MM cell lines) or 72 (MM Patient) hours. Cell viability was determined by flow cytometric analysis of AnnexinV/DAPI staining and normalized to 5 mM samples. Data are means±SEM (n=2 for MM cell lines and NBL. n=1 for MM Patient sample). (B) MM cell lines were cultured in various glucose concentrations for 72 hours. Viable cell quantities were determined by MTS assay (represented by absorbance at 490 nm) and normalized to 5 mM samples. U266 cells (C) and normal PBMC (D) were cultured in 11 mM or 0.5 mM glucose-containing medium for 48 hours in the presence of the indicated concentrations of doxorubicin. Cell death was determined by OAPI staining. […] Glucose consumption rates and lactate production rates were determined and normalized to control shRNA-expressing cells. (G-I) Cells from part (E) were analyzed for viability and proliferation. (J) JJN3 cells transduced with control or GLUT1-targeted shRNA and analyzed for viability and proliferation. Viable cell densities are expressed as fold change relative to the day 0 reading of control shRNA-expressing cells. Cells from parts G-J were evaluated for viability via trypan blue exclusion. […]

[2] = tested on: normal PBMC; assay: Cell death by DAPI staining with doxorubicin at 11 mM or 0.5 mM glucose (FIG. 1D); type: cell-based; conditions: 48 hours
Protocol: as §1

[3] = tested on: JJN3 cells; conditions: JJN3 cultured in the absence of glucose; metformin 5 mM; 72 hrs
Text: (§2) To investigate whether mitochondrial oxidative phosphorylation can render MM cells resistant to glucose-deprivation we treated cells with metformin. which is a known mitochondrial complex 1 inhibitor [25-27]).

[4] = tested on: MM cells; assay: Viability of MM cells, glucose deprivation / ritonavir / metformin; type: cell-based; conditions: absence of glucose; metformin 5 mM; 72 hrs
Text: as §2

[5] = tested on: L363 cells; assay: Viability of MM cell lines by Annexin/DAPI staining (FIG. 2); type: cell-based; conditions: glucose-deprived L363 cells + galactose 10 mM; metformin 5 mM; 72 hrs
Text: as §2

[6] = tested on: L363 cells; assay: Oxygen consumption rate (OCR), SeaHorse XF24 bioanalyzer; type: cell-based; conditions: sensitive L363 cells; ritonavir 20 uM; 17 hrs
Protocol: (§3) FIG. 3. […] Cellular viability was assessed before OCR measurements and 400,000 viable cells were plated in 5 replicates. Result is representative of an n=3.

[7] = tested on: JJN3 cells; assay: as above; type: cell-based; conditions: resistant JJN3 cells; ritonavir alone
Protocol: as §3

[8] = target: T1, GLUT1 (Homo sapiens, UniProt P11166); conditions: cited from earlier work
T1 sequence (P11166 1-492): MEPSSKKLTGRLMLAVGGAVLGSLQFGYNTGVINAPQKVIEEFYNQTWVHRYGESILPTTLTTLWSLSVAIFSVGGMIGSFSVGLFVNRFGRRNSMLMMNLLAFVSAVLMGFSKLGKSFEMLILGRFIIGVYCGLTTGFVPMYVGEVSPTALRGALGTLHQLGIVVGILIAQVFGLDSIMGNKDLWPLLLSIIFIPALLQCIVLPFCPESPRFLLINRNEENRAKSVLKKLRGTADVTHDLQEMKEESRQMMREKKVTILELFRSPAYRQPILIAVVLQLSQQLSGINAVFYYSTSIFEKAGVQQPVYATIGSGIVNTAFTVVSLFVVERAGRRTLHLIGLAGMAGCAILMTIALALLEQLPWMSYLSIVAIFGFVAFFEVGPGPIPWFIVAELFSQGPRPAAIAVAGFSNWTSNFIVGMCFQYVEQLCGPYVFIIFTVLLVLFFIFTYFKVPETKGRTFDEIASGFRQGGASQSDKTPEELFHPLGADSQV

[9] = target: T2, GLUT4 (Homo sapiens, UniProt P14672); conditions: cited from earlier work
T2 sequence (P14672 1-509): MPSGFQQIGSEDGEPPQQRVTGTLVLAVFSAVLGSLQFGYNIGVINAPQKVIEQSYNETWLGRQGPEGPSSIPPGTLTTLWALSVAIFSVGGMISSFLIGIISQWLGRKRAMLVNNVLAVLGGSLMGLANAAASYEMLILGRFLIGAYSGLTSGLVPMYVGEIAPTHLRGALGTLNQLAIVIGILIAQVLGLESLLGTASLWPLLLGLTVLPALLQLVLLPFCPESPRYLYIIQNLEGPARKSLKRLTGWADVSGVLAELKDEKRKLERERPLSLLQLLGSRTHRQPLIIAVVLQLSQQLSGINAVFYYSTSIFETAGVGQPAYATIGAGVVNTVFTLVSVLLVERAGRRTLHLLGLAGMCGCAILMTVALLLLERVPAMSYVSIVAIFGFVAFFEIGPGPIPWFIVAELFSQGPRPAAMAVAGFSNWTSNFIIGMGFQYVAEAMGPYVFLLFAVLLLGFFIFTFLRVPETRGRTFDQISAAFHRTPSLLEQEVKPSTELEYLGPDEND

[10] = tested on: MM; assay: Ritonavir anti-myeloma effects in myeloma cell lines and patient samples; type: cell-based
[11] = tested on: NCI-60 cell lines; assay: NCI-60 panel viability, 48 hr MTS assay (FIG. 5); type: cell-based; conditions: read-out: median reduction of viability
Text: FIG. 5. […] 48 hr MTS assay, n=3+/−SEM, p<0.05
GLUT4 activity may be prevalent across multiple cancers. To examine the dependency of other cancers on GLUT4 activity, we utilized the NCI-60 cancer cell line panel. […] The NCI-60 lines are representative of genetic heterogeneity within each cancer group. Therefore, it is possible that we may detect a role for GLUT4 in a subset of cancers within each group connected to a specific genotype.

[12] = achieved in humans; read-out: Cmax plasma concentration; cited from earlier work

## COc1cccc2c1C(=O)c1c(O)c3c(c(O)c1C2=O)C[C@@](O)(C(=O)CO)C[C@@H]3O[C@H]1C[C@H](N)[C@H](O)[C@H](C)O1 [doxorubicin]
[1]
  sensitivity to doxorubicin (cell death): sensitizes
[2]
  impact of doxorubicin on normal PBMC (cell death): not impacted

## CN(C)C(=N)N=C(N)N [metformin]
[3]
  sensitization of glucose deprived cells to metformin (viability): sensitized to metformin
[4]
  sensitization of glucose deprived MM cells to metformin (viability): sensitized to metformin
[5]
  reversal of galactose rescue of viability: reverses the metabolic rescue provided by galactose

## CC(C)c1nc(CN(C)C(=O)N[C@H](C(=O)N[C@@H](Cc2ccccc2)C[C@H](O)[C@H](Cc2ccccc2)NC(=O)OCc2cncs2)C(C)C)cs1 [ritonavir]
[6]
  oxygen consumption rate (OCR): significant reduction in OCR
[7]
  oxygen consumption rate (OCR): increase in oxygen consumption rate
[8]
  inhibition of cytoplasmic glucose binding site: competitively inhibit
[9]
  inhibition of cytoplasmic glucose binding site: competitively inhibit
[10]
  chemosensitization of resistant MM to doxorubicin: chemosensitizing
[10]; physiologically achievable doses of ritonavir
  glucose inhibitory and growth inhibitory effects in MM: significant glucose inhibitory and growth inhibitory effects
[11]
  cytotoxicity at 20 µM: ≥ 50%
[12]
  Cmax: 16 µM

Reference: US9636329B2, “Methods of treating cancer with glut inhibitors and oxidative phosphorylation inhibitors” (Northwestern University, priority 2012, dated 2017)
